Tests used:
Serotonin 2 Receptor = Serotonin 2 Receptor (Homo sapiens, UniProt P28223); assay: NovaScreen receptor binding, Serotonin 2 Receptor; settings: for inhibition at 10 µM: 10^-5 M (10 μM); for inhibition at 0.1 µM: 10^-7 M (100 nM); for inhibition at 0.001 µM: 10^-9 M (1 nM)
Description: (§1) A number of compounds were sent to NovaScreen® (5200 Freeport Centre, Baltimore, Md. 21224) to determine the compounds' receptor selectivity. […] Compounds which show inhibition of 50% or greater at an assay concentration of 10 μM to 1 nM are considered active or very potent, respectively. In the table below a number of compounds show significant results for two or more of the significant receptors.

Alpha 2 Receptor = assay: NovaScreen receptor binding, Alpha 2 Receptor
Description: as §1

rabbit eye = assay: IOP recovery rate assay (hypertonic sodium chloride infusion, topical drug); type: in vivo; settings: 0.6% solution
Description: The "IOP recovery rate assay" as reported by Vareilles and Lotti (Ophthalmic Res., 13, 72-79, 1981) is used.
IOP was measured at 15, 25, 35, 45, 60, 75, 90 and 120 minutes with an applanation pneumatonometer (Digilab Model D). Fifty uL of a 0.6% solution of N,N'-dimethyl-2-phenylethylamine containing a pH 7.4 phosphate buffer was administered topically to the right eye 60 minutes before the start of the sodium chloride infusion. Control animals were given vehicle without drug.
The hypertonic sodium chloride solution causes a temporary decline in IOP which returns to normal IOP in about 90 minutes if no drug is administered. IOP gradually returns to normal at a constant rate buy more slowly if the in vivo secretion rate of aqueous humor is reduced due to the presence of drug. The return to normal IOP is measured from the positive linear slope which is a measure of the constant rate of return to normal IOP and begins at about 30-45 minutes after starting the NaCl infusion. A comparison of the slope with and without the addition of N=2, R&R'=CH3 to the rabbit eye is expressed as "% reduction".

Serotonin 1 Receptor = assay: NovaScreen receptor binding, Serotonin 1 Receptor
Description: as §1

eye = settings: previously disclosed by applicants; 0.2% to about 0.6% w/v preferred; cited from earlier work

Serotonin 2 Receptor, sequence (P28223 whole entry): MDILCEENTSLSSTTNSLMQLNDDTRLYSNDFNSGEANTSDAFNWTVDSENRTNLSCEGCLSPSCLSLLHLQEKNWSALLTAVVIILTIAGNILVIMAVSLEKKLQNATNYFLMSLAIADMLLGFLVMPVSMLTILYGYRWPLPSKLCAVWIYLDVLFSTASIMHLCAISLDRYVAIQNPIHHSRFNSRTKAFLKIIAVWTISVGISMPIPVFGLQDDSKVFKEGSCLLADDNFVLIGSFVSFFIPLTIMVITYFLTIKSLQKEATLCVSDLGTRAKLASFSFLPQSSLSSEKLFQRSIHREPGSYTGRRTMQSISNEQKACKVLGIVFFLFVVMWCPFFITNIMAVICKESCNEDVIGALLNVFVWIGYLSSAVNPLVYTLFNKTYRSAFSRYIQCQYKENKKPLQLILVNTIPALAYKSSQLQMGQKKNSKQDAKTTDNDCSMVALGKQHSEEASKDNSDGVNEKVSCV

## CN(C)CCc1ccccc1 [n = 2, R&R' = CH3, N,N-dimethyl-2-phenylethylamine]
Serotonin 2 Receptor
  inhibition at 10 µM: 46.9%
  inhibition at 0.1 µM: 10.7%
  inhibition at 0.001 µM: -2.1%
Alpha 2 Receptor; 10^-5 M (10 μM)
  % INHIBITION: 96.7%
Alpha 2 Receptor; 10^-7 M (100 nM)
  % INHIBITION: 15.3%
Alpha 2 Receptor; 10^-9 M (1 nM)
  % INHIBITION: 8.1%
Rabbit eye; 50 uL topical to right eye 60 min before NaCl infusion, n = 12 rabbit eyes, ± standard deviation, vehicle only 0.109 ± 0.0268
  average slope of return to normal IOP: 0.066 ± 0.027
Rabbit eye; topical, n = 12 rabbit eyes
  % Reduction of slope vs vehicle: 38.5%
Rabbit eye; topical, rabbit eye
  in vivo antiglaucoma activity: potent in vivo antiglaucoma drug
Serotonin 1 Receptor; 10^-5 M (10 μM)
  % INHIBITION: 82.3%
Serotonin 1 Receptor; 10^-7 M (100 nM)
  % INHIBITION: 70.6%
Serotonin 1 Receptor; 10^-9 M (1 nM)
  % INHIBITION: 62.3%
eye
  tear stimulation: ophthalmically effective tear stimulant

## CCN(C)Cc1ccccc1 [n = 1, R = CH3, R' = C2 H5]
Alpha 2 Receptor; 10^-5 M (10 μM)
  % INHIBITION: 53.0%
Alpha 2 Receptor; 10^-7 M (100 nM)
  % INHIBITION: 4.7%
Alpha 2 Receptor; 10^-9 M (1 nM)
  % INHIBITION: 2.2%
Serotonin 1 Receptor; 10^-5 M (10 μM)
  % INHIBITION: 17.2%
Serotonin 1 Receptor; 10^-7 M (100 nM)
  % INHIBITION: 6.2%
Serotonin 1 Receptor; 10^-9 M (1 nM)
  % INHIBITION: 5.7%

## CN(CCCc1ccccc1)C1CCCCC1 [n = 3, R = methyl, R' = cyclohexyl]
Serotonin 2 Receptor
  inhibition at 10 µM: 82.1%
  inhibition at 0.1 µM: -8%
  inhibition at 0.001 µM: -15.4%
Alpha 2 Receptor; 10^-5 M (10 μM)
  % INHIBITION: 81.0%
Alpha 2 Receptor; 10^-7 M (100 nM)
  % INHIBITION: 9.3%
Alpha 2 Receptor; 10^-9 M (1 nM)
  % INHIBITION: 3.3%
Serotonin 1 Receptor; 10^-5 M (10 μM)
  % INHIBITION: 5.7%
Serotonin 1 Receptor; 10^-7 M (100 nM)
  % INHIBITION: -10.2%
Serotonin 1 Receptor; 10^-9 M (1 nM)
  % INHIBITION: -6.3%

## CCN(CCc1ccccc1)C1CCCCC1.Cl [n = 2, R = C2 H5, R' = cyclohexyl, N-cyclohexyl-N-ethyl 2-phenylethylamine hydrochloride]
Serotonin 2 Receptor
  inhibition at 10 µM: 48.9%
  inhibition at 0.1 µM: 4.7%
  inhibition at 0.001 µM: -11.2%
Serotonin 1 Receptor; 10^-5 M (10 μM)
  % INHIBITION: 12.2%
Serotonin 1 Receptor; 10^-7 M (100 nM)
  % INHIBITION: -4.0%
Serotonin 1 Receptor; 10^-9 M (1 nM)
  % INHIBITION: 2.6%

## CCCCCCN(C)CCc1ccccc1 [n = 2, R = CH3, R' = n-hexyl]
Serotonin 2 Receptor
  inhibition at 10 µM: 92%
  inhibition at 0.1 µM: 9.6%
  inhibition at 0.001 µM: 2.3%
Alpha 2 Receptor; 10^-5 M (10 μM)
  % INHIBITION: 95.7%
Alpha 2 Receptor; 10^-7 M (100 nM)
  % INHIBITION: 6.7%
Alpha 2 Receptor; 10^-9 M (1 nM)
  % INHIBITION: 1.6%
Serotonin 1 Receptor; 10^-5 M (10 μM)
  % INHIBITION: 55.0%
Serotonin 1 Receptor; 10^-7 M (100 nM)
  % INHIBITION: 30.0%
Serotonin 1 Receptor; 10^-9 M (1 nM)
  % INHIBITION: 10.3%

Source: patent publication US5322859A, “Antiglaucoma drug composition and method” (University of Iowa Research Foundation, priority 1993, dated 1994)
